From US11028095B2, “Spiro-lactam and bis-spiro-lactam NMDA receptor modulators and uses thereof” (Aptinyx Inc., priority 2016, dated 2021)

Columns and labels:
Format in all cases: biochemical
[1] = molecular target: T1, NMDAR2A expressing HEK cell membranes (Homo sapiens, UniProt Q12879); test: NMDAR agonist assay, [3H]MK-801 binding, NMDAR2A; details: 50 μM glutamate; for EC50: [3H]MK-801 binding, read-out: NMDAR2A: log EC50 (converted)
T1 construct: expressed in transfected cells; host or cells: HEK cells (membrane extract)
Description: (§1) (nonequilibrium conditions).
(§2) The baseline value was determined from the best fit curve of the DPM values modeled using the GraphPad program and the log(agonist) vs. response(three parameters) algorithm was then subtracted from all points in the dataset.

[2] = molecular target: T2, NMDAR2B expressing HEK cell membranes (Homo sapiens, UniProt Q13224); test: NMDAR agonist assay, [3H]MK-801 binding, NMDAR2B; details: 50 μM glutamate; for EC50: [3H]MK-801 binding, read-out: NMDAR2B log EC50 (converted)
T2 construct: expressed in transfected cells; host or cells: HEK cells (membrane extract)
Description: as §1, §2

[3] = molecular target: T3, NMDAR2B expressing HEK cell membranes (Homo sapiens, UniProt Q05586+Q13224); test: NMDAR agonist assay, [3H]MK-801 binding, NMDAR2B; details: 50 μM glutamate; for EC50: [3H]MK-801 binding, read-out: NMDAR2B log EC50 (converted); for Emax: relative to 1 mM glycine, read-out: NMDAR2B: % maximal [3H]MK-801 binding relative to 1 mM glycine
T3 construct: expressed in transfected cells; host or cells: HEK cells (membrane extract)
Description: as §1, §2

[4] = molecular target: T4, NMDAR2A expressing HEK cell membranes (Homo sapiens, UniProt Q05586+Q12879); test: NMDAR agonist assay, [3H]MK-801 binding, NMDAR2A; details: 50 μM glutamate; [3H]MK-801 binding; read-out: NMDAR2A: log EC50 (converted)
T4 construct: expressed in transfected cells; host or cells: HEK cells (membrane extract)
Description: as §1, §2

T4 sequence (Q12879 23-1464, other chains not shown): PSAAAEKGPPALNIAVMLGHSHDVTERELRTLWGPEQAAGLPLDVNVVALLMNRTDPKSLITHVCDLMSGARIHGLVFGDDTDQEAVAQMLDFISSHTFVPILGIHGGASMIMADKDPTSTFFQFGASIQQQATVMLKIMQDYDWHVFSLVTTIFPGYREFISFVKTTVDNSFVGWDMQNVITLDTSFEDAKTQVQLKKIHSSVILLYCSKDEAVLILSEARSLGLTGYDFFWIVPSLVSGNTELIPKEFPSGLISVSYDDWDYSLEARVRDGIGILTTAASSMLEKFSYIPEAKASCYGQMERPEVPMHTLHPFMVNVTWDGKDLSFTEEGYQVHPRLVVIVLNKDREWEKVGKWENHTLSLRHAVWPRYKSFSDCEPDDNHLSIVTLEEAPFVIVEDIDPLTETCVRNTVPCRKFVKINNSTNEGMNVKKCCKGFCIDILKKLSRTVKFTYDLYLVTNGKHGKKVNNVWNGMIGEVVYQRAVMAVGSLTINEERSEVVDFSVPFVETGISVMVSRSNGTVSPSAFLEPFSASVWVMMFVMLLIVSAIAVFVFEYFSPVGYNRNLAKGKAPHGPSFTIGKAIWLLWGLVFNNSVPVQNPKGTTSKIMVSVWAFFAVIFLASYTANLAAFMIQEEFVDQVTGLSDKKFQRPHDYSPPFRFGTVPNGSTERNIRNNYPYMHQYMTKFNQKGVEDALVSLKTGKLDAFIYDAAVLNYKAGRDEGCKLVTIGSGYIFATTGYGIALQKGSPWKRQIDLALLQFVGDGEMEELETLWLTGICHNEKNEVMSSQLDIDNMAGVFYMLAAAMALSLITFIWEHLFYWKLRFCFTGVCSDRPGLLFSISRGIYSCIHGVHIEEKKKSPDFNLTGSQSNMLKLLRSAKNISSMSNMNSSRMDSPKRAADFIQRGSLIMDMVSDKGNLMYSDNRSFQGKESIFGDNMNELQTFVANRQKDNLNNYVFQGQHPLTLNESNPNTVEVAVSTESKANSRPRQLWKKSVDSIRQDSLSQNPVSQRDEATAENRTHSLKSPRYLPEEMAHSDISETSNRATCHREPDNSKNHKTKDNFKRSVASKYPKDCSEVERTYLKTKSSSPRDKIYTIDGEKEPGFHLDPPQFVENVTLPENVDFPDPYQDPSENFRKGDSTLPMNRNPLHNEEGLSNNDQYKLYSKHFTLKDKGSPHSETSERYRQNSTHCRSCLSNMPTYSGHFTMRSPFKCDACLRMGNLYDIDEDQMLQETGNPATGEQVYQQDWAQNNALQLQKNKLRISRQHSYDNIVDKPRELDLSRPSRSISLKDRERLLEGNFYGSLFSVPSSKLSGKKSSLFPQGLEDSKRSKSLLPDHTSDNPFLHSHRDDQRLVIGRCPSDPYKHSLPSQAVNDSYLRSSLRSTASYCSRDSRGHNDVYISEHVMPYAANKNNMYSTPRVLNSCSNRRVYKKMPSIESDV
T1 sequence (Q12879 23-1464, other chains not shown): as above
T2 sequence (Q13224 27-1484, other chains not shown): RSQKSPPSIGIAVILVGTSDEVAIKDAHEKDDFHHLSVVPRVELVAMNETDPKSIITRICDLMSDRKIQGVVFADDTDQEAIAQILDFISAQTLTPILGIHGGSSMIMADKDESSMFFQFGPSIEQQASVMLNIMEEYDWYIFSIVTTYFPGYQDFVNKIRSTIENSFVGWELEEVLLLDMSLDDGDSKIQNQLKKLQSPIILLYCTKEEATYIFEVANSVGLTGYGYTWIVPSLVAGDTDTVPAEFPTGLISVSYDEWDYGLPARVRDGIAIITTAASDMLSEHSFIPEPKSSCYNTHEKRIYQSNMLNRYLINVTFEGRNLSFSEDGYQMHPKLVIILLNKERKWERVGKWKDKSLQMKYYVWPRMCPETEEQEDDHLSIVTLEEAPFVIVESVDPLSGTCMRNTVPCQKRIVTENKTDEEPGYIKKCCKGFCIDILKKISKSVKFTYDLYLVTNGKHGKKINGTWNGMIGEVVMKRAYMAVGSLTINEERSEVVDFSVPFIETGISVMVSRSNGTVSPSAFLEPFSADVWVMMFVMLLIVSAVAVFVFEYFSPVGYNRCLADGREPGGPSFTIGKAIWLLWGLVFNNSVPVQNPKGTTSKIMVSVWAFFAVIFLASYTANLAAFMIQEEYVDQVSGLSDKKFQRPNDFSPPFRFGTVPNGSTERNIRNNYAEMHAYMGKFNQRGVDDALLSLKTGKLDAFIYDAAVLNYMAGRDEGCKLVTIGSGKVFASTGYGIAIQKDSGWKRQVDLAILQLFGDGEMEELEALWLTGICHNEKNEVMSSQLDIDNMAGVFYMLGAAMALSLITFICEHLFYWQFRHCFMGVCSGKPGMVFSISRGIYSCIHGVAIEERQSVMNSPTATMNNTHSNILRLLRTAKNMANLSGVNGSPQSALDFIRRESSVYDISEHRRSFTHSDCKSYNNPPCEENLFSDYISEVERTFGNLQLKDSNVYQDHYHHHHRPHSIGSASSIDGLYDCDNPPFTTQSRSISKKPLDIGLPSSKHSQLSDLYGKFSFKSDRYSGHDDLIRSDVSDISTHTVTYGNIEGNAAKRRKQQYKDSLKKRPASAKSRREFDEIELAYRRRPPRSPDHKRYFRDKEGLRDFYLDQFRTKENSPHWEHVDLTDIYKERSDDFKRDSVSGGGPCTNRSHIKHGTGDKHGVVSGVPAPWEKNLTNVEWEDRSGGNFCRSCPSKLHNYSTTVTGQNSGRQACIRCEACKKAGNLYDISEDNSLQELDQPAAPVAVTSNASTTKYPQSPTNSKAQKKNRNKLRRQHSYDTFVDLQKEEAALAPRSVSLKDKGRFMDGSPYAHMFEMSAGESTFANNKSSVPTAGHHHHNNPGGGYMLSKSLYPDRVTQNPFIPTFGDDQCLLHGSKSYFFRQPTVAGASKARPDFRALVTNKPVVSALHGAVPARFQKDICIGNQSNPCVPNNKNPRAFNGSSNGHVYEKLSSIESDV

Compound	NMDAR2A: % maximal [3H]MK-801 binding relative to 1 mM glycine [1]	EC50 [2]	NMDAR2B: % maximal [3H]MK-801 binding relative to 1 mM glycine [2]	EC50 [1]	EC50 [3]	EC50 [4]	Emax [3]
CC(C)(C)OC(=O)N1C2(CCC13CNC3=O)CNC2=O (single isomer, unassigned) [AA-2, tert-butyl 1,7-dioxo-2,5,8-triazadispiro[3.1.36.24]undecane-5-carboxylate]	+ (<100%=+)	> 100 nM	− (−=0)				
CC(C)(C)OC(=O)N1C2(CCC13CNC3=O)CNC2=O (single isomer, unassigned) [AA-3, tert-butyl 1,7-dioxo-2,5,8-triazadispiro[3.1.36.24]undecane-5-carboxylate]	− (−=0)	> 100 nM	− (−=0)	> 100 nM			
CC(C)C(=O)N1C2(CCC13CNC3=O)CNC2=O (single isomer, unassigned) [AI, 5-isobutyryl-2,5,8-triazadispiro[3.1.36.24]undecane-1,7-dione]	+ (<100%=+)		− (−=0)	< 1 nM	> 100 nM		
C[C@@H](O)[C@H](NC(=O)C1CCC2(CNC2=O)N1Cc1ccccc1)C(N)=O (single isomer, unassigned) [AL-2]	+ (<100%=+)		− (−=0)		> 100 nM		
CC(C)CN1C(C(=O)N[C@H](C(N)=O)[C@@H](C)O)CCC12CNC2=O (single isomer, unassigned) [BB]	+ (<100%=+)		+ (<100%=+)		< 1 nM		
C[C@@H](O)[C@H](NC(=O)C1CCC2(CNC2=O)N1C)C(N)=O (single isomer, unassigned) [BD]	+ (<100%=+)	< 1 nM	+ (<100%=+)			< 1 nM	
CC(C)(C)OC(=O)N1C(C(N)=O)CCC12CN(OCc1ccccc1)C2=O (single isomer, unassigned) [BG, tert-butyl 2-(benzyloxy)-6-carbamoyl-1-oxo-2,5-diazaspiro[3.4]octane-5-carboxylate]	+ (<100%=+)					< 1 nM	< 100%
CNC(=O)[C@@H](NCC1CCC2(CN(OCc3ccccc3)C2=O)N1C(=O)OC(C)(C)C)[C@@H](C)O (single isomer, unassigned) [BN]		> 100 nM		> 100 nM			
C[C@@H](O)[C@H](NCC1CCC2(CN(OCc3ccccc3)C2=O)N1C(=O)OC(C)(C)C)C(=O)N(C)C (single isomer, unassigned) [BQ]	− (−=0)				< 1 nM	> 100 nM	< 100%
C[C@@H](O)[C@H](NCC1CCC2(CN(OCc3ccccc3)C2=O)N1C(=O)OC(C)(C)C)C(=O)N(C)C (single isomer, unassigned) [BR]	+ (<100%=+)		++ (>100%=++)			< 1 nM	
C[C@@H](O)[C@H](NC1CN(C(=O)OC(C)(C)C)C2(CNC2=O)C1)C(N)=O (single isomer, unassigned) [CH]	− (−=0)	> 100 nM	− (−=0)			> 100 nM	
CC(O)C(NCC1CCC2(CN(OCc3ccccc3)C2=O)N1)C(N)=O (single isomer, unassigned) [CK]	− (−=0)				< 1 nM	> 100 nM	< 100%
CC(O)C(NCC1CCC2(CN(OCc3ccccc3)C2=O)N1)C(N)=O (single isomer, unassigned) [CL]	+ (<100%=+)	< 1 nM	+ (<100%=+)			< 1 nM	
CC(O)C(NCC1CCC2(CNC2=O)N1)C(N)=O (single isomer, unassigned) [CN]	++ (>100%=++)	< 1 nM	+ (<100%=+)	< 1 nM			
CNC(=O)C(NCC1CCC2(CN(OCc3ccccc3)C2=O)N1)C(C)O (single isomer, unassigned) [CP]		< 1 nM		< 1 nM			
CNC(=O)C(NCC1CCC2(CNC2=O)N1)C(C)O (single isomer, unassigned) [CQ]	− (−=0)				< 1 nM	> 100 nM	> 100%
CNC(=O)C(NCC1CCC2(CNC2=O)N1)C(C)O (single isomer, unassigned) [CR]	+ (<100%=+)	< 1 nM	++ (>100%=++)			< 1 nM	
CC(O)C(C(N)=O)N(C)CC1CCC2(CN(OCc3ccccc3)C2=O)N1 (single isomer, unassigned) [CS]	− (−=0)	< 1 nM	+ (<100%=+)			> 100 nM	
CC(O)C(C(N)=O)N(C)CC1CCC2(CN(OCc3ccccc3)C2=O)N1 (single isomer, unassigned) [CT]	+ (<100%=+)				< 1 nM	< 1 nM	< 100%
CC(O)C(C(N)=O)N(C)CC1CCC2(CNC2=O)N1 (single isomer, unassigned) [CU]	− (−=0)					> 100 nM	> 100%
CNC(=O)C(C(C)O)N(C)CC1CCC2(CN(OCc3ccccc3)C2=O)N1 (single isomer, unassigned) [CX]	+ (<100%=+)	< 1 nM	++ (>100%=++)	< 1 nM			
NC(=O)C1CCC2(CN(OCc3ccccc3)C2=O)N1 (single isomer, unassigned) [CZ, 2-(benzyloxy)-1-oxo-2,5-diazaspiro[3.4]octane-6-carboxamide]				< 1 nM			
CC(C)CN1C(C(N)=O)CCC12CNC2=O (single isomer, unassigned) [DD, 5-isobutyl-1-oxo-2,5-diazaspiro[3.4]octane-6-carboxamide]	+ (<100%=+)	< 1 nM	+ (<100%=+)	< 1 nM			
NC(=O)C1CCC2(CNC2=O)N1Cc1ccccc1 (single isomer, unassigned) [DF, 5-benzyl-1-oxo-2,5-diazaspiro[3.4]octane-6-carboxamide]		< 1 nM		< 1 nM			
NC(=O)C1CCC2(CNC2=O)N1Cc1ccc(F)cc1 (single isomer, unassigned) [DH, 5-(4-fluorobenzyl)-1-oxo-2,5-diazaspiro[3.4]octane-6-carboxamide]	+ (<100%=+)		++ (>100%=++)	< 1 nM	< 1 nM		
O=C1NCC12CN(Cc1ccc(F)cc1)C1(CNC1=O)C2 (single isomer, unassigned) [DK, 10-(4-fluorobenzyl)-2,8,10-triazadispiro[3.1.3^6.2^4]undecane-1,7-dione]	+ (<100%=+)				< 1 nM	< 1 nM	< 100%
O=C1NCC12CN(Cc1ccc(F)cc1)C1(CNC1=O)C2 (single isomer, unassigned) [DL, 10-(4-fluorobenzyl)-2,8,10-triazadispiro[3.1.3^6.2^4]undecane-1,7-dione]	− (−=0)	< 1 nM	+ (<100%=+)			> 100 nM	
CC(C)(C)OC(=O)N1C2(CCC13CNC3=O)CNC2=O (stereo not shown) [AA-1, tert-butyl 1,7-dioxo-2,5,8-triazadispiro[3.1.36.24]undecane-5-carboxylate]	− (−=0)				> 100 nM	> 100 nM	0%
